Measurements as given in publication PMC12040169 (PLOS Biology, 2025).

Experiment: in vitro
Settings: human, hela cells, % viability

Structure (SMILES)	viability at 28.5 h, 10 µM [%]
CC(=O)Nc1sc(/C(C#N)=C/c2cccc(Oc3ccccc3)c2)nc1-c1ccc(C)cc1 [CBK264895]	98.4
Fc1cc2c3c(c1)c1c(n3CCO2)CCNCC1 [CBK018018C]	102
Oc1cccc2ccc(/C=C/c3ccc(-c4ccccc4Cl)o3)nc12 [CBK264445]	97.7
CNC(=O)c1sc2ccccc2c1C1CCN(Cc2ccc(Oc3ncccn3)cc2)C1 (centres unmarked) [CBK285881]	85.9
O=C(NCCc1ccccc1Cl)C1(Cc2ccc(-c3cccnc3)cc2)CCOCC1 [CBK285590]	95.5
Fc1ccc(CCN2CCCCC2c2cc3ccccc3[nH]2)cc1 (centres unmarked) [CBK107227T]	89.6
COc1ccc([C@@]23CC[C@@H](NC(=O)Nc4ncc(Cl)s4)C[C@@H]2N(C)CC3)cc1OC [CBK051620T]	96.1
O=C(CSc1nc(Nc2ccccc2)nc(N2CCOCC2)n1)Nc1ccc2c(c1)OCO2 [CBK268320]	96.5
Cn1cc(C(=O)NC(Cc2ccsc2)c2nccs2)ccc1=O (centres unmarked) [CBK285140]	98.5
CC(NC(=O)c1ncoc1-c1ccccc1Cl)c1ccccn1 (centres unmarked) [CBK282409]	94.8
CCN(Cc1ccccc1)C(=O)NCCc1c[nH]cn1 [CBK155220]	92.8
CC(NC(=O)C1CCN(Cc2cccs2)CC1)c1ccc(F)cc1 (centres unmarked) [CBK148041]	101
O=C(NCCc1cccs1)C(c1ccccc1)c1ccccc1 [CBK270275]	90.1
CC(C)C[C@@H]1N[C@H](C(=O)N2CCN(c3ncccn3)CC2)Cc2cn(C)c3cccc1c23 [CBK289421]	84.2
CCOC(=O)Cc1csc(NS(=O)(=O)/C=C/c2ccccc2)n1 [CBK000072]	101
Cc1cc(Cl)c(S(=O)(=O)N(C)C)cc1OCC(=O)Nc1ccccc1 [CBK269705]	89
c1csc(CN2CCC(n3cnc4cccnc43)CC2)c1 [CBK283968]	101
CCCc1onc(S(=O)(=O)c2ccc(C)cc2)c1NC [CBK020322]	84.3
Cc1cc(C)n(CC(C)CNC(=O)CCCN(C)C)n1 (centres unmarked) [CBK304831]	93
OCCCNc1cncc(-c2ccc(F)cc2F)n1 [CBK065851]	96.1
O=S(=O)(CC(F)(F)F)Nc1cccc2cc[nH]c12 [CBK153585]	99.5
Cc1ccc(C)n1NC(=O)c1ccccc1[N+](=O)[O-] [CBK266151]	104
Cc1csc(S(=O)(=O)Cc2nnc(C)n2C2CC2)n1 [CBK305494]	98.4

Structure (SMILES)	viability at 28.5 h, 10 µM [%]
CCOC(=O)[C@@]12CC=CCN(C(=O)c3cccnc3)[C@@H]1CCC2 [CBK284575]	90.8
COC(=O)CCc1ccc(S(=O)(=O)N2CCCN(Cc3cc(F)cc(F)c3)CC2)cc1 [CBK062990]	106
N#Cc1c(Oc2cccc(Cl)c2Cl)cccc1C(F)(F)F [CBK002592]	91.1
O=C(c1nc2ccccc2[nH]1)N1CCN(c2ccccc2)CC1 [CBK200167]	103
COc1ccc(C2CCCN2C(=O)CC2CCN(C(=O)CC3CCCCC3)CC2)cc1 (centres unmarked) [CBK286263]	102
CN1CC(C(=O)N2C3CCC2CC(c2ccc(F)cc2)C3)CC1=O (centres unmarked) [CBK283769]	96.3
CN(C(=O)c1ccccc1)[C@]1(C)C2CC(C[C@@H]2O)C1(C)C (some centres unmarked) [CBK010498]	102
COCc1cc(C[C@H]2CNCC[C@H]2CC(=O)N2CCc3ccccc3C2)no1 [CBK289144]	88.4
Cc1cccc(NC(=O)c2ccccc2NS(=O)(=O)c2ccc(F)c(F)c2)c1 [CBK113810]	115
CCOC(=O)C(NC(=O)c1c(C)nn(C)c1C)c1cccc(C)c1C (centres unmarked) [CBK304253]	98.9
Cc1cc(N2CCN(C(=O)CCc3ccccc3)CC2)nc(C(C)C)n1 [CBK305711]	99.3
Cc1ccc2c(c1)nc(CNC(=O)NCc1ccnc(C)n1)n2C [CBK304292]	101
CC(=O)N1CCc2cc(C(O)CN3CCCC4CCCCC43)ccc21 (centres unmarked) [CBK282924]	93.6
O=C(CSc1ccc2ccccc2c1)NCc1ccco1 [CBK269699]	80.3
COc1ccccc1-c1ccc(NC(=O)CCc2nc3ccccc3[nH]2)cc1 [CBK285651]	103
CN1CCc2nc(SCC(=O)c3ccc(-c4ccccc4)cc3)c(C#N)c(-c3cccs3)c2C1 [CBK267447]	88.3
O=C1C2(c3ccccc3)CN3CN(C2)CC1(c1ccccc1)C3 [CBK262245]	93.5
Cc1c(Cl)cccc1S(=O)(=O)Nc1nc(-c2cccc([N+](=O)[O-])c2)cs1 [CBK000994]	107
CN(C)CCNC(=O)c1cc(-c2cccnc2)nc2c(Cl)cccc12 [CBK267761]	112
COC(=O)c1ccccc1NC(=O)CSc1nnc(-c2ccncc2)[nH]1 [CBK266324]	96.4
O=C(NCCOc1ccc(F)cc1)c1cccs1 [CBK057930]	116
O=C(COc1cccc2ccccc12)Nc1ccc(O)cc1 [CBK266002]	88.6
c1ccc(-c2nnc3sc(-c4ccccn4)nn23)cc1 [CBK267344]	96.2

Structure (SMILES)	viability at 28.5 h, 10 µM [%]
CC(C)CN1CCN(S(=O)(=O)c2ccc(C(F)(F)F)cc2Cl)CC1 [CBK062740]	113
Cc1cccc(C)c1OCC(O)CNCCc1ccccc1 (centres unmarked) [CBK003072]	107
COc1ccc(S(=O)(=O)N(Cc2c(F)cccc2F)C2CCN(C)CC2)cc1 [CBK161910T]	109
CC(C)(C)c1ccc(S(=O)(=O)N2CCCC[C@H]2CCOC(=O)/C=C\C(=O)O)cc1 [CBK200069]	89.6
CCCCN(C)c1c(C)nc2c(Oc3nc4ccccc4s3)cccn12 [CBK147192]	93.4
CCN(CC)C(=O)c1cn(CCC#N)nc1-c1cccc(OC)c1 [CBK305941]	92.6
Cc1c(CNc2nnc(C(C)(C)C)o2)cnn1C [CBK306439]	83.5
CSc1nc(N)c2c3c(sc2n1)CN(C)CC3 [CBK018303]	122
O=C(NC1CC1)c1nn(-c2ncccn2)c2ccccc12 [CBK048508]	88
O=C(O)CCC(=O)Nc1cccc(C(=O)Nc2cccc(Cl)c2)c1 [CBK296977]	89.8
CCCCOc1ccc(-c2nonc2NC(=O)COc2ccccc2Cl)cc1 [CBK299792]	117
Cc1cc(C(F)(F)F)nc2c(OCCOc3nccnc3N3CCNCC3)cnn12 [CBK024195C]	96.1
N#CCCn1cc(C(=O)Nc2ccc(C(=O)O)cc2)c(-c2cc3ccccc3o2)n1 [CBK267866]	96.6
Clc1ccc(-n2ncc3c(NCc4ccccc4)ncnc32)cc1 [CBK287355]	95.1
COc1ccc(CCCC(=O)NCc2sc(-c3ccccc3)nc2C)cc1OC [CBK092353]	85.2
CN(C)c1nc(N2CCOCC2)c(C#N)c(=O)o1 [CBK007447]	116
Cc1cccc(OC(C)C(=O)Nc2ccccc2C(=O)N2CCCCC2)c1 (centres unmarked) [CBK269960]	85.4
O=C(c1cc(F)cc(F)c1)N1CCC(c2n[nH]c3ncccc23)CC1 [CBK284909]	87.9
N#Cc1ccc(NCC(=O)Nc2ncn(Cc3cccnc3)n2)cc1 [CBK306343]	94.3
CC(NC(=O)C1CCN(CCOc2ccc(F)cc2)CC1)c1cccc2ccccc12 (centres unmarked) [CBK148634]	93.6
Cc1ccc2nsnc2c1NC(=O)CN1CCCCC1 [CBK269330]	110
O=C(c1ccccc1)c1ccc(OCCO)cc1 [CBK000725]	94
O=C(O)C(Cc1c[nH]cn1)N1C(=O)C2C3C=CC(C3)C2C1=O (centres unmarked) [CBK286705]	88

Structure (SMILES)	viability at 28.5 h, 10 µM [%]
O=C(NC1(C(F)(F)F)NC(=O)N(CCc2ccccc2)C1=O)c1ccco1 (centres unmarked) [CBK267482]	89.2
CN1CCCN(c2cncc(-c3cc4ccccc4o3)n2)CC1 [CBK065997]	93
Cc1ccc(-c2n[nH]c(=S)n2CCC(=O)NC(C)c2ccc3c(c2)CCCC3)cc1 (centres unmarked) [CBK295666]	90.1
O=S(=O)(Nc1cccc2[nH]ccc12)c1ccc(F)cc1 [CBK153522]	60.9
Clc1cncc(NCCc2c[nH]c3ccccc23)n1 [CBK093514]	56.8
COc1ccc(OCCNC(=O)C2(c3ccc(OC)cc3)CC2)cc1 [CBK149821]	91.8
COC(=O)Nc1ccc2c(c1)N(C(=O)CCN1CCN3CCCC3C1)c1ccccc1CC2 (centres unmarked) [CBK278220C]	93.1
O/N=C/Nc1nccc(-c2cc(Cl)sc2Cl)n1 [CBK005934]	87.5
O=C(NCc1ccc(Cl)cc1)c1cn(-c2ccccc2)c2ccc(CN3CCOCC3)cc2c1=O [CBK018481]	98.7
CN(C)c1ccc(Nc2cc(-c3ccco3)ncn2)cc1 [CBK090946]	90.3
O=C(O)c1ccccc1NS(=O)(=O)c1cccc(-n2sc3ccccc3c2=O)c1 [CBK116503]	94.7
CCOc1ccc(S(=O)(=O)N2CCN(S(=O)(=O)c3cccc([N+](=O)[O-])c3)CC2)cc1 [CBK266341]	95.9
CNC(=O)c1ccc(-c2ccc(CNC(=O)CCc3cccc(Cl)c3)cc2)nc1C [CBK286015]	86.9
CCOC(=O)c1c(NC(=O)CCC(=O)O)sc2c1CCCCC2 [CBK262648]	100
CC1(C)CC(=O)C=C(NCC2CCNCC2)C1 [CBK027580]	87.9
C[S+]([O-])CC(O)(c1ccc(F)cc1)C1CC1 (centres unmarked) [CBK025846]	114
COCCc1nsc(N2CCC(Oc3cccnc3N(C)C)C2)n1 (centres unmarked) [CBK305418]	98.8
O=C(NC(C(=O)N/N=C/c1ccc(Cl)cc1Cl)c1n[nH]c(=O)c2ccccc12)c1ccccc1 (centres unmarked) [CBK261118]	103
CCN(CC)C(=O)[C@@H]1CCCN1c1nc(O)cc(C(F)(F)F)n1 [CBK002867]	92
COc1ccc(NC(=O)CSc2nc3c(c(-c4cccs4)c2C#N)CN(C)CC3)cc1OC [CBK267444]	103
